Values quoted from earlier work in patent US12649947B2, “Method of treatment using genetic predictors of a response to treatment with CRHR1 antagonists” (HMNC Holding GmbH, priority 2015, dated 2026).

Tested on: mice overexpressing CRH in the forebrain

COCC(COC)Nc1nc(C)nc2c(-c3ccc(Cl)cc3Cl)c(C)nn12 [DMP696]
effect on REM sleep enhancement: could reverse the REM enhancement
